In US9187437B2, “Substituted oxadiazole compounds” (BRISTOL-MYERS SQUIBB COMPANY, priority 2010, dated 2015):

Tests used:
[1] = target: T1, S1P1 (Homo sapiens (Human), UniProt P21453); test: S1P1 Binding Assay (33P-S1P radioligand competition, membranes from CHO cells); settings: membranes from CHO cells expressing human S1P1; 0.03 nM 33P-S1P; rounded to two significant digits
Procedure: Membranes were prepared from CHO cells expressing human S1P1. Cells pellets (1×10^8 cells/pellet) were suspended in buffer containing 20 mM HEPES, pH 7.5, 50 mM NaCl, 2 mM EDTA and Protease Inhibitor cocktail (Roche), and disrupted on ice using the Polytron homogenizer. The homogenate was centrifuged at 20,000 rpm (48,000 g) and the supernatant was discarded. The membrane pellets were resuspended in buffer containing 50 mM HEPES, pH 7.5, 100 mM NaCl, 1 mM MgCl2, 2 mM EDTA and stored in aliquots at −80° C. after protein concentration determination.
The IC50 is defined as the concentration of competing ligand needed to reduce specific binding by 50%.

[2] = target: T1, S1P1; test: Receptor [35S] GTPγS Binding Assay, S1P1/CHO cell membranes; type: biochemical; settings: membranes from S1P1/CHO cells; rounded to two significant digits
Procedure: (§1) Receptor [35S] GTPγS Binding Assays
(§2) Compounds were loaded in a 384 Falcon v-bottom plate (0.5 μl/well in a 11 point, 3-fold dilution). Membranes prepared from S1P1/CHO cells or EDG3-Ga15-bla HEK293T cells were added to the compound plate (40 μl/well, final protein 3 μg/well) with MULTIDROP®. [^35S]GTP (1250 Ci/mmol, Perkin Elmer) was diluted in assay buffer: 20 mM HEPES, pH7.5, 10 mM MgCl2, 150 mM NaCl, 1 mM EGTA, 1 mM DTT, 10 μM GDP, 0.1% fatty acid free BSA, and 10 μg/ml Saponin to 0.4 nM. 40 μl of the [^35S] GTP solution was added to the compound plate with a final concentration of 0.2 nM. The reaction was kept at room temperature for 45 min. At the end of incubation, all the mixtures in the compound plate were transferred to Millipore 384-well FB filter plates via the VELOCITY11® Vprep liquid handler. The filter plate was washed with water 4 times by using the manifold Embla plate washer and dried at 60° C. for 45 min. MicroScint 20 scintillation fluid (30 μl) was added to each well for counting on the Packard TOPCOUNT®. EC50 is defined as the agonist concentration that corresponds to 50% of the Ymax (maximal response) obtained for each individual compound tested. The results in Table B were rounded to two significant digits.

[3] = target: S1P3 (Homo sapiens (Human), UniProt Q99500); test: Receptor [35S] GTPγS Binding Assay, EDG3-Ga15-bla HEK293T cell membranes; type: biochemical; settings: membranes from EDG3-Ga15-bla HEK293T cells; rounded to two significant digits
Chain of S1P3 (Q99500 whole entry): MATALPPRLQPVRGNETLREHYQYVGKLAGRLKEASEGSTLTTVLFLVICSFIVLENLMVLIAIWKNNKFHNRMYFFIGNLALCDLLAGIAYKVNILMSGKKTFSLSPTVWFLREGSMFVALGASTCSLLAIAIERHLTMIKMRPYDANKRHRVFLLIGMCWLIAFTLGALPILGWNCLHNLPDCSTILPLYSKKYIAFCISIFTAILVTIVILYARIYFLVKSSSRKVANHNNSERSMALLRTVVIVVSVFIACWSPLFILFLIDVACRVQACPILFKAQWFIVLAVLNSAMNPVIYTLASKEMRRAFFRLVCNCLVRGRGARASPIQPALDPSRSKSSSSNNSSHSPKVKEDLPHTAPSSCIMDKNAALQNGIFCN
Procedure: as §1, §2

T1 sequence (P21453 whole entry): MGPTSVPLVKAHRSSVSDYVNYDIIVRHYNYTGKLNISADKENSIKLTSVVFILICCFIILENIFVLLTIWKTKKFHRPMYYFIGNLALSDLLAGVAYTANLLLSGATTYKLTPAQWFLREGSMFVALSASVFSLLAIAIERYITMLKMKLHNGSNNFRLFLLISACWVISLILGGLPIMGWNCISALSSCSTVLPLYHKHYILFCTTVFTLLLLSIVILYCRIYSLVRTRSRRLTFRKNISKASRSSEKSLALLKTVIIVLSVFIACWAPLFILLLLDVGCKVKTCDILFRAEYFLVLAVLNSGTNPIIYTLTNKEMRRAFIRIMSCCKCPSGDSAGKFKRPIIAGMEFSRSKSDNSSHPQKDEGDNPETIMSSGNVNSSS

| Compound | IC50 [1] [nM] | EC50 [2] [nM] | EC50 [3] [nM] |
| --- | --- | --- | --- |
| Fc1ccc(-c2noc(CCC3(c4ccccc4)CCCCC3)n2)c(F)c1 [Example 28, 3-(2,4-difluorophenyl)-5-(2-(1-phenylcyclohexyl)ethyl)-1,2,4-oxadiazole] | 25 |  |  |
| O=c1cc(-c2noc(CCC3(c4cc(F)cc(F)c4)CCCCC3)n2)cc[nH]1 [Example 2, 4-(5-(2-(1-(3,5-Difluorophenyl)cyclohexyl)ethyl)-1,2,4-oxadiazol-3-yl)-2(1H)-pyridinone] | 13 |  |  |
| c1ccc(-c2noc(C3(c4ccccc4)CCCCC3)n2)cc1 [Example 42, 3-Phenyl-5-(1-phenylcyclohexyl)-1,2,4-oxadiazole, reference compound] | 12000 | > 62000 |  |
| Fc1ccc(-c2noc(CCC3(c4ccccc4)CCCCC3)n2)cc1 [Example 5, 3-(4-fluorophenyl)-5-(2-(1-phenylcyclohexyl)ethyl)-1,2,4-oxadiazole] | 12 |  |  |
| Nc1cc(-c2noc(CCC3(c4ccccc4)CCCCC3)n2)ccn1 [Example 29, 4-(5-(2-(1-phenylcyclohexyl)ethyl)-1,2,4-oxadiazol-3-yl)-2-pyridinamine] |  | 36 | 430 |
| Cc1ccc(-c2noc(CCC3(c4cc(F)cc(F)c4)CCCCC3)n2)c(=O)[nH]1 [Example 1, 3-(5-(2-(1-(3,5-Difluorophenyl)cyclohexyl)ethyl)-1,2,4-oxadiazol-3-yl)-6-methyl-2(1H)-pyridinone] | 1300 |  |  |
| Nc1ncccc1-c1noc(CCC2(c3ccccc3)CCCCC2)n1 [Example 33, 3-(5-(2-(1-phenylcyclohexyl)ethyl)-1,2,4-oxadiazol-3-yl)-2-pyridinamine] | 1.9 | 67 | 550 |
| c1ccc(-c2noc(CCC3(c4ccccc4)CCCCC3)n2)cc1 [Example 7, 3-phenyl-5-(2-(1-phenylcyclohexyl)ethyl)-1,2,4-oxadiazole] | 3.3 | 130 | 630 |
| COc1cc(OC)cc(-c2noc(CCC3(c4ccccc4)CCCCC3)n2)c1 [Example 19, 3-(3,5-dimethoxyphenyl)-5-(2-(1-phenylcyclohexyl)ethyl)-1,2,4-oxadiazole] |  | 2200 | 1700 |
| Clc1cc(-c2noc(CCC3(c4ccccc4)CCCCC3)n2)ccn1 [Example 32, 2-chloro-4-(5-(2-(1-phenylcyclohexyl)ethyl)-1,2,4-oxadiazol-3-yl)pyridine] | 0.54 | 50 | 430 |
| c1ccc(C2(CCc3nc(-c4ccccn4)no3)CCCCC2)cc1 [Example 30, 2-(5-(2-(1-phenylcyclohexyl)ethyl)-1,2,4-oxadiazol-3-yl)pyridine] | 97 |  |  |
| COc1ccc(OC)c(-c2noc(CCC3(c4ccccc4)CCCCC3)n2)c1 [Example 26, 3-(2,5-dimethoxyphenyl)-5-(2-(1-phenylcyclohexyl)ethyl)-1,2,4-oxadiazole] | 8.1 | 4900 | 16000 |
| Fc1ccccc1COc1ccc(-c2noc(CCC3(c4ccccc4)CCCCC3)n2)cc1 [Example 20, 3-(4-((2-fluorobenzyl)oxy)phenyl)-5-(2-(1-phenylcyclohexyl)ethyl)-1,2,4-oxadiazole] | 410 |  |  |
| Fc1cc(-c2noc(CCC3(c4ccccc4)CCCCC3)n2)ccc1C(F)(F)F [Example 13, 3-(3-fluoro-4-(trifluoromethyl)phenyl)-5-(2-(1-phenylcyclohexyl)ethyl)-1,2,4-oxadiazole] | 210 |  |  |
| Cc1cccc(-c2noc(CCC3(c4ccccc4)CCCCC3)n2)c1 [Example 9, 3-(3-methylphenyl)-5-(2-(1-phenylcyclohexyl)ethyl)-1,2,4-oxadiazole] |  | 530 | 2200 |
| Clc1ncn(Cc2cccc(-c3noc(CCC4(c5ccccc5)CCCCC4)n3)c2)c1Cl [Example 24, 3-(3-((4,5-dichloro-1H-imidazol-1-yl)methyl)phenyl)-5-(2-(1-phenylcyclohexyl)ethyl)-1,2,4-oxadiazole] |  | 3200 | 1300 |
| Fc1ccc(-c2noc(CCC3(c4ccccc4)CCCCC3)n2)cc1F [Example 12, 3-(3,4-difluorophenyl)-5-(2-(1-phenylcyclohexyl)ethyl)-1,2,4-oxadiazole] |  | 330 | 5900 |
| FC(F)(F)c1cccc(-c2noc(CCC3(c4ccccc4)CCCCC3)n2)c1 [Example 8, 5-(2-(1-phenylcyclohexyl)ethyl)-3-(3-(trifluoromethyl)phenyl)-1,2,4-oxadiazole] | 33 | 710 | > 62000 |
| c1ccc(C2(CCc3nc(-c4cccnc4)no3)CCCCC2)cc1 [Example 38, 3-(5-(2-(1-phenylcyclohexyl)ethyl)-1,2,4-oxadiazol-3-yl)pyridine] |  | 100 | 2200 |
| [O-][n+]1ccc(-c2noc(CCC3(c4ccccc4)CCCCC3)n2)cc1 [Example 34, 4-(5-(2-(1-phenylcyclohexyl)ethyl)-1,2,4-oxadiazol-3-yl)pyridine 1-oxide] | 67 |  |  |
| FC(F)(F)c1cc(-c2noc(CCC3(c4ccccc4)CCCCC3)n2)cc(C(F)(F)F)c1 [Example 4, 3-(3,5-bis(trifluoromethyl)phenyl)-5-(2-(1-phenylcyclohexyl)ethyl)-1,2,4-oxadiazole] |  | 280 | > 62000 |
| Clc1ccc(-c2noc(CCC3(c4ccccc4)CCCCC3)n2)c(Cl)c1 [Example 17, 3-(2,4-dichlorophenyl)-5-(2-(1-phenylcyclohexyl)ethyl)-1,2,4-oxadiazole] |  | 740 | 1200 |
| Cc1ccsc1-c1noc(CCC2(c3ccccc3)CCCCC2)n1 [Example 40, 3-(3-methyl-2-thienyl)-5-(2-(1-phenylcyclohexyl)ethyl)-1,2,4-oxadiazole] | 1.2 |  |  |
| Clc1ccc(COc2ccc(-c3noc(CCC4(c5ccccc5)CCCCC4)n3)cc2)cc1 [Example 27, 3-(4-((4-chlorobenzyl)oxy)phenyl)-5-(2-(1-phenylcyclohexyl)ethyl)-1,2,4-oxadiazole] | 610 |  |  |
